Measured values reported in patent US20260315446A1, “ANTIFUNGAL COMPOUNDS AND USES THEREOF” (priority 2023, published 2026).
Converted amounts (≈) assume the structure as drawn. “Also recorded” adds a separate entry of the source. Where two headings read alike, the source gives them in different places.

Experiments:
[1] = system: Candida albicans (SC5314); assay: Broth microdilution MIC (Example 1); type: cell-based; conditions: Candida albicans, SC5314; in the presence of 1 μg/mL fluconazole; read-out: MIC against Candida albicans (SC5314)
Method: (§1) MICs/minimum effective concentrations (MECs) were determined for each of the novel analogs against the three major human fungal pathogens, A. fumigatus, C. neoformans, and C. albicans. […] Thus, analogs of FK506 and FK520 can tolerate up to 100-fold reduction in antifungal activity and still be considered for in vivo testing. For C. neoformans, MICs were the most uniform and ranged from 0.2 to 2 μg/mL, which is between 4- and 40-fold reduced for antifungal activity.
(§2) In vitro antifungal activities of FK506, FK520, and analogs were assessed in RPMI 1640 (Sigma-Aldrich) for all strains tested. MICs/minimum effective concentrations (MECs) for each drug were measured using modified Clinical and Laboratory Standards Institute (CLSI) M38-A2 and M27-A3 standard in vitro antifungal susceptibility protocols. Broth microdilution assays for MIC/MEC assessment were performed as described previously (see, Juvvadi P R, et al., 2019, Nat Commun 10:4275). All antifungal assays with C. neoformans were performed at 37° C. Antifungal susceptibility testing for C. albicans was performed in the presence of a uniform 1 μg/mL concentration of fluconazole to sensitize the organism to calcineurin inhibition.

[2] = system: Cryptococcus neoformans (H99); assay: Broth microdilution MIC (Example 1); type: cell-based; conditions: for MIC: Cryptococcus neoformans, 37° C., read-out: MIC against Cryptococcus neoformans (H99)
Method: as §1, §2

Aspergillus fumigatus = assay: Broth microdilution MIC/MEC (Example 1); type: cell-based; conditions: Aspergillus fumigatus; strain Af293; read-out: MEC against Aspergillus fumigatus (Af293)
Method: as §1
To assess the antifungal activity against other human fungal pathogens, JH-FK-05 was selected to test against a panel of pathogenic molds and drug-resistant A. fumigatus strains (Table 4). JH-FK-05 registered MECs as low as 1 μg/mL for some of these highly recalcitrant species, such as Mucor circinelloides, Rhizopus oryzae, and pan azole-resistant A. fumigatus (strain F14946).
as §2

[3] = system: C. neoformans growth versus IL-2 in murine T cells; assay: Therapeutic index score (immunosuppressive fold change to antifungal fold change relative to FK506); design: species or system Cryptococcus neoformans; mouse; conditions: Table 12, Example 4; FK506 = 1.0
Text: To assess the therapeutic potential for these compounds, it was important to develop an approach to score and rank them based on antifungal and immunosuppressive activities. The therapeutic index score (TIscore) is a ratio of the immunosuppressive fold change to the antifungal fold change, with all values relative to the baseline FK506 activity (FIG. 6B). A TIscore of >1.0 indicates an increase in fungal specificity because the fold change of the immunosuppressive reduction is greater than the antifungal activity reduction. As an example, JH-FK-05 is 20-fold reduced for antifungal activity but about 180-fold reduced for immunosuppression. Therefore, the TIscore of JH-FK-05 is 9.1 (TIscore=182/20). The top two analogs were JH-FK-02 (TIscore=9.7) and JH-FK-05 (TIscore=9.1). Due to the similar TIscore, JH-FK-05 was prioritized to advance to animal trials on the merit of more pronounced antifungal activity compared to JH-FK-02.
Based on the in vitro fungal and mammalian calcineurin inhibition data, the panel of FK520 analogs was assessed and ranked. Therapeutic index (TI) scores were used to quantify the effects of structural modification on the compounds (Table 8). Therapeutic index scores were calculated for each analog as the ratio of relative change in immunosuppressive and antifungal activities compared to FK506 as previously utilized (see, I-Toy M J, et at. 2022. mBio 13:e0104922). This ratio of therapeutic benefit and host toxicity, or fungal and mammalian calcineurin inhibition, allowed us to quantify and rank these analogs. […] This is the greatest TI found within the library and allowed us to identify JH-FK-08 as a lead candidate for an in vivo study. Tolerability of JH-FK-08 was assessed by monitoring animal responses to drug dosing across 14 days, including changes in weight, fur condition, and behavior. A maximum dose of 40 mg/kg was tested in once a day dosing, and due to solubility limitations, the tolerability of JH-FK-08 at 60 and 80 mg/kg total daily doses was assessed by dosing two equal doses per day (FIG. 14). […] It should be noted that analogs JH-FK-12 and JH-FK-23 are also promising candidates with respective Tis of 24.7 and 24.5.

C. neoformans = assay: MIC assay (Example 4); type: cell-based, Cryptococcus neoformans; conditions: for MIC: Cryptococcus neoformans
Method: Both JH-FK-10 and JH-FK-11 maintained in vitro antifungal activity against C. neoformans with MICs of 0.8 and 1.6 μg/mL, respectively (Table 11).
In vitro antifungal activity of FK506, FK520, and analogs was assessed in RPMI 1640 (Sigma-Aldrich) for all strains tested. Minimum inhibitory concentrations (MIC) for each drug were measured using modified Clinical and Laboratory Standards Institute (CLSI) M38-A2 and M27-A3 standard in vitro antifungal susceptibility protocols. Broth microdilution assays for MIC assessment were performed as previously described. All antifungal assays with C. neoformans were performed at 37° C.

[4] = system: IL-2 expression in primary murine CD4+ T cells; assay: In vitro immunosuppressive activity, IL-2 expression (Example 4); type: cell-based, mouse; conditions: for IC50: Mus musculus, CD4+ T
Method: Spleen and lymph nodes were collected from C57BL/6 mice and homogenized through a 40 μm filter. Pan-CD4^+ T cells were enriched using MagniSort Mouse CD4 T cell Kit (eBioscience) according to the manufacturer's protocol. Thereafter, CD4+CD25−CD44lo CD62Lhi naïve T cells were FACS-sorted. The naïve CD4+ T cells were grown in Iscove's Modified Dulbecco's Medium (IMDM) supplemented with glutamine, penicillin, streptomycin, gentamicin, 2-mercaptoethanol, and 10% FBS. Cells were then cultured on anti-hamster IgG coated plates in the presence of hamster anti-CD3 epsilon and anti-CD28 antibodies (BD Biosciences), neutralizing anti-IL-4 antibody (eBioscience), recombinant IL-12 (10 ng/mL), and recombinant IL-2 (50 U/mL) for 72 h. During this period, cells were grown in the presence of 2× serially diluted FK506, FK520, or analog suspended in DMSO for 72 h. During the last 4 h of culture, phorbol 12-myristate 13-acetate (PMA; Sigma), ionomycin (Sigma), and GolgiStop (BD Biosciences) were added to the culture to facilitate detection of intracellular cytokines via flow cytometry.
Live cells were stained with FITC-conjugated anti-CD4 antibody (eBioscience) and Fixable Viability Dye eFluor 506 (eBioscience) on ice, followed by fixation and permeabilization using the Foxp3 Transcription Factor Staining Kit (eBioscience). Intracellular staining was performed at room temperature using PE-conjugated anti-IL-2 antibody (eBioscience), followed by analysis with a BD LSRFortessa X-20 flow cytometer.

| SMILES | MIC [1] [µg/mL] | MIC [2] [µg/mL] | minimal effective concentration (Aspergillus fumigatus) [µg/mL] | other results |
| --- | --- | --- | --- | --- |
| C=CC[C@@H]1/C=C(\C)C[C@H](C)C[C@H](OC)[C@H]2O[C@@](O)(C(=O)C(=O)N3CCCC[C@H]3C(=O)O[C@H](/C(C)=C/[C@@H]3CC[C@@H](O)[C@H](OC)C3)[C@H](C)[C@@H](O)C/C1=N/NC(=O)c1ccccc1)[C@H](C)C[C@@H]2OC [JH-FK-03] | 0.8 | 1 (≈ 1.08 µM) | 1 | – |
| CC[C@@H]1/C=C(\C)C[C@H](C)C[C@H](OC)[C@H]2O[C@@](O)(C(=O)C(=O)N3CCCC[C@H]3C(=O)O[C@H](/C(C)=C/[C@@H]3CC[C@@H](O)[C@H](OC)C3)[C@H](C)[C@@H](O)C/C1=N/NC(=O)C(F)(F)F)[C@H](C)C[C@@H]2OC [JH-FK-07] | 0.2 | 0.2 (≈ 0.222 µM) | 1.25 | broad-spectrum antifungal activity / MIC ranking ([2]; C. neoformans, C. albicans, A. fumigatus): maintained high levels of broad-spectrum antifungal activity across the three species; also recorded: had the lowest MICs for both C. neoformans and C. albicans |
| CC[C@@H]1/C=C(\C)C(O)[C@H](C)C[C@H](OC)[C@H]2O[C@@](O)(C(=O)C(=O)N3CCCC[C@H]3C(=O)O[C@H](/C(C)=C/[C@@H]3CC[C@@H](O)[C@H](OC)C3)[C@H](C)[C@@H](O)CC1=O)[C@H](C)C[C@@H]2OC (some centres unmarked) [JH-FK-10] | – | – | – | Therapeutic Index Score [3]: 3.2; MIC (C. neoformans; 37° C., Table 11, read-out: C. neoformans MIC): 0.8 µg/mL (≈ 0.99 µM); MIC (C. neoformans; read-out: C. neoformans MIC, 37° C., Table 12): 0.8 µg/mL (≈ 0.99 µM); immunosuppressive activity [4]: detectable immunosuppressive activities; IC50 ([4]; Table 12): 5.7 nM |
| CC[C@@H]1/C=C(\C)C(O)[C@H](C)C[C@H](OC)[C@H]2O[C@@](O)(C(=O)C(=O)N3CCCC[C@H]3C(=O)O[C@H](/C(C)=C/C3CC[C@@H](O)[C@H](OC)C3)[C@H](C)[C@@H](O)C/C1=N/NC(C)=O)[C@H](C)C[C@@H]2OC (some centres unmarked) [JH-FK-18] | – | – | – | C. neoformans MIC (C. neoformans; 37° C., Table 13): >50 µg/mL; MIC (C. neoformans; 37° C., Table 13, read-out: C. neoformans MIC): > 50 µg/mL; antifungal activity (C. neoformans; up to a maximum concentration of 50 μg/mL): no detectable antifungal or immunosuppressive activity; also recorded: no detectable biological activity; IL-2 production ([4]; 200 nM): no changes in IL-2 production; IC50 ([4]; Table 13): > 200 nM |
| C=CC[C@@H]1/C=C(\C)C[C@H](C)C[C@H](OC)[C@H]2O[C@@](O)(C(=O)C(=O)N3CCCC[C@H]3C(=O)O[C@H](/C(C)=C/[C@@H]3CC[C@@H](O)[C@H](OC)C3)[C@H](C)[C@@H](O)C/C1=N/NC(C)=O)[C@H](C)C[C@@H]2OC [JH-FK-01] | 0.4 | 1 (≈ 1.16 µM) | 1 | – |
| C=CC[C@@H]1/C=C(\C)C[C@H](C)C[C@H](OC)[C@H]2O[C@@](O)(C(=O)C(=O)N3CCCC[C@H]3C(=O)O[C@H](/C(C)=C/[C@@H]3CC[C@@H](O)[C@H](OC)C3)[C@H](C)[C@@H](O)CC1=NNC(=O)CN(C)C)[C@H](C)C[C@@H]2OC [JH-FK-04] | 6.25 | 2 (≈ 2.21 µM) | 2 | – |
